# Test results reported in ChEMBL document CHEMBL1201862, “PubChem BioAssay data set” (2004).
# The source made the active and inactive calls.
# Columns and labels:
# [1] = biological target: T1, Aminopeptidase N (Plasmodium falciparum FcB1/Columbia, UniProt O96935); assay: P. falciparum M1AAP inhibitors, biochemical, fluorogenic H-Leu-NHMec substrate, 1536-well (AID 1445); design: species or system Plasmodium falciparum 3D7, 3D7
# T1 sequence (O96935 whole entry): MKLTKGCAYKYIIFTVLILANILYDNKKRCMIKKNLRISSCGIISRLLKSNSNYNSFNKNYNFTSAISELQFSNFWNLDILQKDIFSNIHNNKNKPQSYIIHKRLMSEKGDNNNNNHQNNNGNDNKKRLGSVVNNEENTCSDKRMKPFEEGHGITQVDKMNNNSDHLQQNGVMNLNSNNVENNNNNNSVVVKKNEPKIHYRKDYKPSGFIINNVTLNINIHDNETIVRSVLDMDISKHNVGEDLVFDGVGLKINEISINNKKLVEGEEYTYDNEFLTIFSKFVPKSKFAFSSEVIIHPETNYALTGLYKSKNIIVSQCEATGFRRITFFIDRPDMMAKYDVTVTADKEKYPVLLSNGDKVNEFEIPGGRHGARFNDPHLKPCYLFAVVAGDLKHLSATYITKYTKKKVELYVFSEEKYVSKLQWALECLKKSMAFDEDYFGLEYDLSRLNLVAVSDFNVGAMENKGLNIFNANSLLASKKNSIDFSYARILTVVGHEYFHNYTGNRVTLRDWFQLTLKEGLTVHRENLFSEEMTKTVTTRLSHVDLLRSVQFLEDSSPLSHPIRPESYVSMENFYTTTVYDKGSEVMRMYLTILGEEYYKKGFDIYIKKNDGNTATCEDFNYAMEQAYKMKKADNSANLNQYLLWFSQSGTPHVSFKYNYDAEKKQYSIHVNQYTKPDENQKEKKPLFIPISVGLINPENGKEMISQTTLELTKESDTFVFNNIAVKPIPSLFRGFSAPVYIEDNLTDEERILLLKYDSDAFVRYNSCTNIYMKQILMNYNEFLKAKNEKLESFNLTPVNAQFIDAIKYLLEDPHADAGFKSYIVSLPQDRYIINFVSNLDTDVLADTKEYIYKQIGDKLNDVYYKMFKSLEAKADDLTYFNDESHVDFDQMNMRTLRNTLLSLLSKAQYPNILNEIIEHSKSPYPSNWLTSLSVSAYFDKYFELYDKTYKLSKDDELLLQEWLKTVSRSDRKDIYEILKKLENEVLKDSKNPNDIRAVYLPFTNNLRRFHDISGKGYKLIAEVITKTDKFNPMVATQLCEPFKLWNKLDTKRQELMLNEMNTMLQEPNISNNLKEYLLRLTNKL
# [2] = biological target: T2, DNA repair and recombination protein RAD54-like (Homo sapiens, UniProt Q92698); assay: inhibitors of human RAD54 branch migration, confirmation, biochemical, fluorescence, cherry-picked samples, dose series (AID 651657); type: functional
# T2 sequence (Q92698 whole entry): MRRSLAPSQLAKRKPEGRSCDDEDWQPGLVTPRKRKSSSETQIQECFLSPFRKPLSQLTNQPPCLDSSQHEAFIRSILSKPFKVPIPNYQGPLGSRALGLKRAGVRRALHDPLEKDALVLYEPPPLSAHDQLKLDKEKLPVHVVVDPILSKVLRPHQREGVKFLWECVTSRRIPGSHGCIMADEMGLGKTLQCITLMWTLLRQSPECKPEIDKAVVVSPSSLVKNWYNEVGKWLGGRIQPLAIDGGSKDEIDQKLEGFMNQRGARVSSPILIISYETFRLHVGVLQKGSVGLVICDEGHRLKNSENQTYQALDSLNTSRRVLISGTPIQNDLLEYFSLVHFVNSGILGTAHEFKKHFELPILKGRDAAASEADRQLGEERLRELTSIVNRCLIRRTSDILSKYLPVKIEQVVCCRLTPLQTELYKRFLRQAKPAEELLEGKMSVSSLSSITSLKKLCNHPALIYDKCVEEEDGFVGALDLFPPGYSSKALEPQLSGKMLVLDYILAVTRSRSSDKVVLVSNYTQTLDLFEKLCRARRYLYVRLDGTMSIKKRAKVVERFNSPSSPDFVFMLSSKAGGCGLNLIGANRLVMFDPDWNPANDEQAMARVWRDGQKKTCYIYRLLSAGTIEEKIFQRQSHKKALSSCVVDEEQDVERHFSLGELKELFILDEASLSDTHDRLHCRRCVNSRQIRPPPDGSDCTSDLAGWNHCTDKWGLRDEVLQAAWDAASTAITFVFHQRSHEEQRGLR
# [3] = biological target: T3, Cytochrome P450 1A2 (Homo sapiens, UniProt P05177);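 further: PubChem cytochrome P450 panel assay, CYP1A2 panel member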
# T3 sequence (P05177 whole entry): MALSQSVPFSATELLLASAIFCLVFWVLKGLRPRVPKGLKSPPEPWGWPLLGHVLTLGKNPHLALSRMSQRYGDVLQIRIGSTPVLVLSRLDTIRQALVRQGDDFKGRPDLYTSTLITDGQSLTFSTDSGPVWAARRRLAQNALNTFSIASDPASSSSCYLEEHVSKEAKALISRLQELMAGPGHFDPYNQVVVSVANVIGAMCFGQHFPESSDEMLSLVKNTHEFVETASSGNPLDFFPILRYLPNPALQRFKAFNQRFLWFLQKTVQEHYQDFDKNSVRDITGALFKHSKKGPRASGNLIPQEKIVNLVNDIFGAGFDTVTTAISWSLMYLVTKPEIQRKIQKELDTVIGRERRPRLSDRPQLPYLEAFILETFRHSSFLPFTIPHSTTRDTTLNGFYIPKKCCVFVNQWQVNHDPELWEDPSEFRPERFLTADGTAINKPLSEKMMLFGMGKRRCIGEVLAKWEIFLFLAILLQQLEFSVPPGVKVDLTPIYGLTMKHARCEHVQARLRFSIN
# [4] = biological target: Cytochrome P450 2D6 (Homo sapiens, UniProt P10635);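 further: CYP2D6 member of a cytochrome P450 panel assay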
# [5] = biological target: Lysosomal acid glucosylceramidase (Homo sapiens, UniProt P04062); assay: Dose response cell-based high throughput screening assay to identify enhancers of beta-glucosidase activity. [Related pubchem assays: 784 ]; type: functional
# [6] = tested on: HEK293; assay: inhibitors of LMP1-driven NF-kB reporter, dose response, cell-based, HEK293, luciferase, cherry-pick (AID 588343); type: functional; settings: Homo sapiens
# [7] = polyadenylation inhibitors in yeast reporter, dose response, luminescence, S. cerevisiae SKY197-pL101 (AID 2525); type: functional, cell-based
# [8] = biological target: T4, Rac GTPase-activating protein 1 (Homo sapiens, UniProt Q9H0H5); assay: MgcRacGAP GTPase-activating activity inhibitors, confirmation, biochemical, ADP Hunter fluorescence, primary and confirmatory (AID 624330); type: functional
# T4 sequence (Q9H0H5 whole entry): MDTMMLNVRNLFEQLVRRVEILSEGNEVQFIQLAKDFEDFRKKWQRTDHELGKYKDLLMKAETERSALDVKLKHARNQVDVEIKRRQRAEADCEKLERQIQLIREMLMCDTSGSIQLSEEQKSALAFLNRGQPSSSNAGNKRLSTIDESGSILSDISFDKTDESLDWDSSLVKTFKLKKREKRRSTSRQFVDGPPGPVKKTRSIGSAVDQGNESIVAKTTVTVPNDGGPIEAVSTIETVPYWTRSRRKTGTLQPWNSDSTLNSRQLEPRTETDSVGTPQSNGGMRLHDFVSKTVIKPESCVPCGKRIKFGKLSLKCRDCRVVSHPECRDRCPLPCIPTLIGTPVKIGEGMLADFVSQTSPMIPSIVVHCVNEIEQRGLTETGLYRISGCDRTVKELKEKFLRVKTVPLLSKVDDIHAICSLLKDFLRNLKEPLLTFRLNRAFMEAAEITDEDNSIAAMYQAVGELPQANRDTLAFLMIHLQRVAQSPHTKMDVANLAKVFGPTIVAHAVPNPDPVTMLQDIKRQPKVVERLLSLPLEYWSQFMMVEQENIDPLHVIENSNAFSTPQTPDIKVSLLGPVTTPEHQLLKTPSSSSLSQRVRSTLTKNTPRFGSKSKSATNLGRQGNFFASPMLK
# [9] = Luminescence Cell-Based Dose Confirmation HTS to Identify Inhibitors of Polyadenylation.; type: functional
# [10] = biological target: T5, Eukaryotic translation initiation factor 2-alpha kinase 3 (Homo sapiens, UniProt Q9NZJ5); assay: Counterscreen assay for PERK inhibitors: Dose response cell-based high throughput screening assay to measure inhibition of PERK at 6 hours. [Related pubchem assays: 1522, 1416 ]; type: functional
# [11] = biological target: T5, Eukaryotic translation initiation factor 2-alpha kinase 3; assay: Dose response cell-based high-throughput screening assay to measure PERK inhibition. [Related pubchem assays: 1416 ]; type: functional
# [12] = biological target: T6, Voltage-gated N-type calcium channel alpha-1B subunit/Amyloid beta A4 precursor protein-binding family A member 1 (Homo sapiens, UniProt Q00975+Q02410); assay: disruptors of Mint-PDZ/N-type channel peptide interaction – biochemical, HTRF, set 2, SAR follow-up (AID 434980); type: functional
# [13] = biological target: T6, Voltage-gated N-type calcium channel alpha-1B subunit/Amyloid beta A4 precursor protein-binding family A member 1; assay: disruptors of Mint-PDZ/N-type channel peptide interaction – biochemical, HTRF, SAR follow-up (AID 2489); type: functional
# [14] = biological target: T7, Zinc finger protein mex-5 (Caenorhabditis elegans, UniProt Q9XUB2); assay: MEX-5/TCR-2 RNA interaction inhibitors, dose response, biochemical, C. elegans, fluorescence polarization (AID 1960)
# T7 sequence (Q9XUB2 whole entry): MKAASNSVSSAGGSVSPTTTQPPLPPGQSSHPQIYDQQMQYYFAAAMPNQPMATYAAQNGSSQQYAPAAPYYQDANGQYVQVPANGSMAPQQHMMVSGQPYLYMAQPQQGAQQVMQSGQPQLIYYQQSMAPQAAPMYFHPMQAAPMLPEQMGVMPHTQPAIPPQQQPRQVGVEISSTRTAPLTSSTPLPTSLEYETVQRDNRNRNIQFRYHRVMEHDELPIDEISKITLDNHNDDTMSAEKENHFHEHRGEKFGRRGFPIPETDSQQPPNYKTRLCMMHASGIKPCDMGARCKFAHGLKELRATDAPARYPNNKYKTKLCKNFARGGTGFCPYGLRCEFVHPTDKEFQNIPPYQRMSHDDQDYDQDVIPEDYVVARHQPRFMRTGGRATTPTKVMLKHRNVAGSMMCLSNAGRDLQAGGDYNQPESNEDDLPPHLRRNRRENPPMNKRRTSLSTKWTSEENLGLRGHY
# [15] = biological target: Female germline-specific tumor suppressor gld-1 (Caenorhabditis elegans, UniProt Q17339); assay: inhibitors of GLD-1 binding to TGE RNA, dose response, biochemical, fluorescence polarization, C. elegans (AID 2802);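 further: fluorescence polarization of labeled TGE RNA bound by purified gld-1 protein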
# [16] = biological target: T8, Hexokinase HKDC1 (Homo sapiens, UniProt Q2TB90); assay: HKDC1 hexokinase inhibitors, dose response, biochemical, W721R variant (AID 504729); type: functional
# T8 sequence (Q2TB90 whole entry): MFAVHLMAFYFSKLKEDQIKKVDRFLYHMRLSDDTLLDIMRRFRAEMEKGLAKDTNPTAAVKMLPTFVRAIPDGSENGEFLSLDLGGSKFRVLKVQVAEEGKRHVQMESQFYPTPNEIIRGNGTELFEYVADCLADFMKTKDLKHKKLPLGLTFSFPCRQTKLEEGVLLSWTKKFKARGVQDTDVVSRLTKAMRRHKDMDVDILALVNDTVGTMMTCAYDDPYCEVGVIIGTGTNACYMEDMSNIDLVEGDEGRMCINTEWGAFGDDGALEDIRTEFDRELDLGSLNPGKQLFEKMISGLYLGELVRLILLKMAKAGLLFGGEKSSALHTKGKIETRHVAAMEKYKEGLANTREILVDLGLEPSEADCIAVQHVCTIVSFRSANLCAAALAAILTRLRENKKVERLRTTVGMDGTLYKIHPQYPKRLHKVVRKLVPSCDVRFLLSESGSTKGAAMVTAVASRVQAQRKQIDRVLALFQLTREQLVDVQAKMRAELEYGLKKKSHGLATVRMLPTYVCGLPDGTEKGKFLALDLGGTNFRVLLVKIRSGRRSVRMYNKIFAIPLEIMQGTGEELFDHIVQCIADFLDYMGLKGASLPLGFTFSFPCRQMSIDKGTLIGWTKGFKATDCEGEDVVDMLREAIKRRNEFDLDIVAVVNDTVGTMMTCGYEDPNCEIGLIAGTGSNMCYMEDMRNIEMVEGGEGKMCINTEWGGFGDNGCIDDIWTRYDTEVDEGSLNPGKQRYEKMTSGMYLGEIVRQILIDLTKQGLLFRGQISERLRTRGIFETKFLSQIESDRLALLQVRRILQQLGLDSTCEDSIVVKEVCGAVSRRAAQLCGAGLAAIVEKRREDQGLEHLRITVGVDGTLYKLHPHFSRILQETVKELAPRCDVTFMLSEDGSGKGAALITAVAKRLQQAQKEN
# [17] = tested on: INS1; assay: beta cell apoptosis inhibitors, cytokine rescue, dose response, luminescence, retest (AID 449756); type: functional, cell-based; settings: Rattus norvegicus;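 further: cell death triggered by IL-1 beta plus TNF-alpha plus IFN-gamma mixture; protective hits raise ATP signal compared with cytokine alone wells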
# [18] = biological target: Protein Rev (Human immunodeficiency virus type 1 group M subtype B (isolate HXB2)(HIV-1), UniProt P04618); assay: inhibitors of Rev binding to RRE RNA, dose response, biochemical, fluorescence polarization, HIV-1 (AID 434976); design: species or system Human immunodeficiency virus 1
# [19] = biological target: T9, RNA-binding protein pos-1 (Caenorhabditis elegans, UniProt G5EF15); assay: inhibitors of POS-1/mex-3 RNA binding, dose response, biochemical, fluorescence polarization (AID 1964);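 further: purified POS-1 fused to maltose binding protein made in E. coli; potency of compounds blocking POS-1 binding to fluorescent RNA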
# T9 sequence (G5EF15 whole entry): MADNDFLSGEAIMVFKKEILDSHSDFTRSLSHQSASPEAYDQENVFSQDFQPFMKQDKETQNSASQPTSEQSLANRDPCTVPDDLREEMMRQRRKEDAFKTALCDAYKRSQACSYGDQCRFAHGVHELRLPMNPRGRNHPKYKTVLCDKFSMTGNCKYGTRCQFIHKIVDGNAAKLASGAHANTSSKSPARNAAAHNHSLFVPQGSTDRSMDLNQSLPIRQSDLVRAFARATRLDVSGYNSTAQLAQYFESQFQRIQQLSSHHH
# T5 sequence (Q9NZJ5 whole entry): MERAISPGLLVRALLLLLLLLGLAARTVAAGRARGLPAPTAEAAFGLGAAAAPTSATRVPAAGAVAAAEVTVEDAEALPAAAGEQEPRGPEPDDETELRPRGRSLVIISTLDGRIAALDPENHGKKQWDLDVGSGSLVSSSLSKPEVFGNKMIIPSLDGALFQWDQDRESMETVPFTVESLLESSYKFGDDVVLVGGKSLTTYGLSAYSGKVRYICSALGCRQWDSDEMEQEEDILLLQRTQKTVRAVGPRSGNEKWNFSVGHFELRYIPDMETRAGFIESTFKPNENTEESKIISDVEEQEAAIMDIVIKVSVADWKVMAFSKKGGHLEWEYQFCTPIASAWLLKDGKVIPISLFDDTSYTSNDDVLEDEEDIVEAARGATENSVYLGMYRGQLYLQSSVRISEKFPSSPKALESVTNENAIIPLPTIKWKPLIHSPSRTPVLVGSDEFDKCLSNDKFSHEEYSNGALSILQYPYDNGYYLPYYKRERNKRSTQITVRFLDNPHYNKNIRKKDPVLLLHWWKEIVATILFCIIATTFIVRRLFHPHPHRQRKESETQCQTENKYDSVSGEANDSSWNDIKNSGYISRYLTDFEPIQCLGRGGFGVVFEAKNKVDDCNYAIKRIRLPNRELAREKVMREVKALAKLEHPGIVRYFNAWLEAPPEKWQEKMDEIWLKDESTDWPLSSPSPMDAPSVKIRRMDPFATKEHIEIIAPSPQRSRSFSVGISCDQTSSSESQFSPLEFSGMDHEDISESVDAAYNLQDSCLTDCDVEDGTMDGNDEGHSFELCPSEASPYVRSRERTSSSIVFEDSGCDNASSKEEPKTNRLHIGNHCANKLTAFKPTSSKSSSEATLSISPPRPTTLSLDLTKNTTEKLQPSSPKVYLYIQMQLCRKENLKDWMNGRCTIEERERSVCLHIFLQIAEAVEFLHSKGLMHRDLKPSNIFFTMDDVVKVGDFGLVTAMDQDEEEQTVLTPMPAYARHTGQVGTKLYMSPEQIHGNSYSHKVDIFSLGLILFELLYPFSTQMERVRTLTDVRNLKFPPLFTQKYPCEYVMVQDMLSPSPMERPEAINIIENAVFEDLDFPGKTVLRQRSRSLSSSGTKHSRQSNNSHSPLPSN
# T6 sequence (Q00975 whole entry): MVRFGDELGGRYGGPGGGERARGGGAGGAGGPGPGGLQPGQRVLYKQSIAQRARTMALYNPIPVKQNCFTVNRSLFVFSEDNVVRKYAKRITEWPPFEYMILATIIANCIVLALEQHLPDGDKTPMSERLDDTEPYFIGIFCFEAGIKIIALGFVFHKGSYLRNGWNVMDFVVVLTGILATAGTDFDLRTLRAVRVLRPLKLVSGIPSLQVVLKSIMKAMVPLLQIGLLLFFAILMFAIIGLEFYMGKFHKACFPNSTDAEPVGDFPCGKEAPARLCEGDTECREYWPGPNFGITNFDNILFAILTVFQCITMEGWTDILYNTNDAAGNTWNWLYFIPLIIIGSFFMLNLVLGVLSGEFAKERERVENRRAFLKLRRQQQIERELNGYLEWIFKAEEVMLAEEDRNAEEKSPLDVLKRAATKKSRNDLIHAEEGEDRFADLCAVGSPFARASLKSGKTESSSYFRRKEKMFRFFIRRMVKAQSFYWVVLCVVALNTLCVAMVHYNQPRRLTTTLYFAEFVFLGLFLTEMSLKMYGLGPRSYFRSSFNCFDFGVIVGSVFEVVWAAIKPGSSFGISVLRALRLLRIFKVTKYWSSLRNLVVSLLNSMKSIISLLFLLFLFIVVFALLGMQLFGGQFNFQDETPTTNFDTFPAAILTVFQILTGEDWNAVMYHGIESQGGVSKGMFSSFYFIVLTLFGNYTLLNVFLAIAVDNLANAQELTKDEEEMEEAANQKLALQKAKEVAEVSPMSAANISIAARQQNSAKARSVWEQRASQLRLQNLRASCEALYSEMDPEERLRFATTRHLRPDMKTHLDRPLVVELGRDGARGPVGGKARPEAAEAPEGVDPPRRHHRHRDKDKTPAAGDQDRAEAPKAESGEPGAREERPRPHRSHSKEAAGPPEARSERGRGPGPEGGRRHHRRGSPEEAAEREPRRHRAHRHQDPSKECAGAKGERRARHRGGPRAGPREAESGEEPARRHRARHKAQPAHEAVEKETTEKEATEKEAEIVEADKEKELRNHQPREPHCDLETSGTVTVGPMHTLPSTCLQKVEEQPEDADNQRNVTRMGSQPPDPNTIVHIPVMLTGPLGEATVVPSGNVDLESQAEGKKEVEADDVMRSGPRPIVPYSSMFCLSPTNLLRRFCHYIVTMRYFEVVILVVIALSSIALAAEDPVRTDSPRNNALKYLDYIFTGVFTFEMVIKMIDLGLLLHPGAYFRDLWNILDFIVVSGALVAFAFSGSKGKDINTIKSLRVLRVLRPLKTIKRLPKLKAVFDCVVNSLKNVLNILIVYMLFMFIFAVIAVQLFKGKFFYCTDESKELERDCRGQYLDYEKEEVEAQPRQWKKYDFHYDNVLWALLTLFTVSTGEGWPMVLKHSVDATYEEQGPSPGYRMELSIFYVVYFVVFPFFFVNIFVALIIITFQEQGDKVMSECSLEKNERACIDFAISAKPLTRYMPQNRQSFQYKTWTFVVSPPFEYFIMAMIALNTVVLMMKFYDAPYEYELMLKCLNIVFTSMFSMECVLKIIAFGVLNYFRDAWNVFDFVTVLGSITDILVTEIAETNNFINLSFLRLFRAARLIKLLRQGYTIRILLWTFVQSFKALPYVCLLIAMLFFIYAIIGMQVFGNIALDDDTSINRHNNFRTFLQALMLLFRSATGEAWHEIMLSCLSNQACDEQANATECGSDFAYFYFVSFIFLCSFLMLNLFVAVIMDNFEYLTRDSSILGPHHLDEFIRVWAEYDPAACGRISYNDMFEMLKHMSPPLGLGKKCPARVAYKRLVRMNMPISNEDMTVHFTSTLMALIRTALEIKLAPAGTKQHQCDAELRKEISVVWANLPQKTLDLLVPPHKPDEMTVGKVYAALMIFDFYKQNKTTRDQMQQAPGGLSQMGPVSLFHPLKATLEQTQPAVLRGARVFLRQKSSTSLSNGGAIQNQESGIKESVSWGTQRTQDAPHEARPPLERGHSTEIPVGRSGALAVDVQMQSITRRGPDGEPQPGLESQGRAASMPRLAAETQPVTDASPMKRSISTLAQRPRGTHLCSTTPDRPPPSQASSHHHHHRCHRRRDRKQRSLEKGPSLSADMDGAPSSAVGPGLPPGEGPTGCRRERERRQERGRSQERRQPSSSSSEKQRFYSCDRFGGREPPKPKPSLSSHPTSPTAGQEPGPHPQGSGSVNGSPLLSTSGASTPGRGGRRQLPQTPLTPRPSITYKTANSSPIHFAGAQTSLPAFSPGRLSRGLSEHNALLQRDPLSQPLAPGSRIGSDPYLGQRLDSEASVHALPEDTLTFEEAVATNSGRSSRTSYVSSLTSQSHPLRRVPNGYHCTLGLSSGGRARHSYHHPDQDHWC
# T6 sequence (Q02410 whole entry): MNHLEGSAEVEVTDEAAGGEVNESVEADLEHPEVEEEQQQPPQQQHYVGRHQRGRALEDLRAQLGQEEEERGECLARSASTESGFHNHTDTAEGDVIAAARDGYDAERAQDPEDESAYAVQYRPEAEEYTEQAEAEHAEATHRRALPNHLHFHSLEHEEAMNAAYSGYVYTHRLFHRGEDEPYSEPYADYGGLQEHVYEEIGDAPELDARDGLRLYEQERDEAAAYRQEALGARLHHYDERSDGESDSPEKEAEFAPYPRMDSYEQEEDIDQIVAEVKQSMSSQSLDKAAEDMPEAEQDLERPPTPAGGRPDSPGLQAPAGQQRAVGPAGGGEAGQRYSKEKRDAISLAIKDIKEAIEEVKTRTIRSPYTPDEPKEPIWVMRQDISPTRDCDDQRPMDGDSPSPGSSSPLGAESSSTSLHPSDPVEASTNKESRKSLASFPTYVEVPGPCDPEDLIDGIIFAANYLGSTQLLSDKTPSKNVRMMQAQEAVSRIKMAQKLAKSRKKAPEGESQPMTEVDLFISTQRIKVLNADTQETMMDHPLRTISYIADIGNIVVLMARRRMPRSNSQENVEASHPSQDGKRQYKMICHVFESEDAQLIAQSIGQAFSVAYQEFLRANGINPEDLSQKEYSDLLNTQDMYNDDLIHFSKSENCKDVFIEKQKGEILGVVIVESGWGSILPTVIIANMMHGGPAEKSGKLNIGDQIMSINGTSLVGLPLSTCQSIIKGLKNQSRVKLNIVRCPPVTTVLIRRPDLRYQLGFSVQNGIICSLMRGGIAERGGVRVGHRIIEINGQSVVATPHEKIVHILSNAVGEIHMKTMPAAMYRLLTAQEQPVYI
# Chain of Lysosomal acid glucosylceramidase (P04062 whole entry): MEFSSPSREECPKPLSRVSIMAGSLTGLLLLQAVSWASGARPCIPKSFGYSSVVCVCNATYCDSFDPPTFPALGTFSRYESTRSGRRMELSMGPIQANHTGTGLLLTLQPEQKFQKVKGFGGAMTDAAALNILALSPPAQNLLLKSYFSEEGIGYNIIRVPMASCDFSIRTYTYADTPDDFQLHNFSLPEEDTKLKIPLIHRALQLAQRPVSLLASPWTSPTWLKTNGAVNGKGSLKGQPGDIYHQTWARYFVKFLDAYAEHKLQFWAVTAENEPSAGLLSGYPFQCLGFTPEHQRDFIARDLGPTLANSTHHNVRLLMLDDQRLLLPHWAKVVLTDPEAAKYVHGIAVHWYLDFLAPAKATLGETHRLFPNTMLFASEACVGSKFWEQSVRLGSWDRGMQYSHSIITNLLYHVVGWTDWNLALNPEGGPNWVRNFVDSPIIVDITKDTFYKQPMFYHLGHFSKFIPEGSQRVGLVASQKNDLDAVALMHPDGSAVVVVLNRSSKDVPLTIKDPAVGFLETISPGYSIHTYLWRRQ
# Chain of Protein Rev (P04618 whole entry, the tested form may be a part): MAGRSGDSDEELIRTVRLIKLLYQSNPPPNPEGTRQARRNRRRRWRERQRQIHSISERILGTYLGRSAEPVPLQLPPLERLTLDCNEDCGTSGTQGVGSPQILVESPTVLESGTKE
smiles,measurement,setting,value
CCN1CCN(CCCNC(=O)c2cc3cc4ccc(OC)cc4nc3o2)CC1,IC50,[1],107 µM (active)
same,AC50,[2],26.5 µM (active)
same,AC50,[3],31.6 µM (inconclusive)
same,AC50,[4],1.41 µM (inconclusive)
same,EC50,[5],15.9 µM (not active)
COc1cc(/C=C2\SC(=S)N(NC(=O)c3ccncc3)C2=O)ccc1O,AC50,[6],222 µM (active)
same,EC50,[7],8.56 µM (active)
same,IC50,[8],48.1 µM (active)
same,EC50,[9],7.59 µM (active)
O=C(O)c1ccc(-c2nc(-c3ccccc3)c(-c3cccs3)[nH]2)cc1,EC50,[10],> 55.7 µM (not active)
same,EC50,[11],> 55.7 µM (not active)
O=C(NCCc1cccnc1)c1cc(-c2ccco2)nc2ccccc12,IC50,[12],> 56.8 µM (inactive)
same,IC50,[13],29.2 µM (active)
COc1cc2c(cc1OC)-c1c(OC)c(OC)c(OC)c3ccnc(c13)C2=O [OXOPURPUREINE],EC50,[14],4.83 µM (active)
same,IC50,[15],6.15 µM (active)
same,IC50,[16],12.1 µM (active)
same,AC50,[17],3.34 µM (active)
same,IC50,[18],> 75.4 µM (not active)
same,EC50,[19],28.6 µM (inconclusive)
